These results are taken from patent US9512114B2, “Substituted aminopyrimidine compounds and methods of use” (Calitor Sciences, LLC, priority 2013, dated 2016).

The structures appear in SMILES notation.

For orientation: IC50 means the concentration needed to halve the response being measured. The term AUC(0-t) denotes the area under the concentration-time curve up to a stated or last time point. Low readings indicate low exposure, high ones high exposure. For orientation: CLint scaled means a measure of how fast metabolising enzymes remove a compound, apart from limits set by blood flow.

For one series, the target named is PI3K (p120γ) (h) (Homo sapiens (Human), UniProt P48736). The series can be described thus: PI3K (p120γ) (h) non-radioactive HTRF kinase assay. It is filed as biochemical. Particulars: performed at Millipore UK Ltd. How it is done: (§1) The above assay procedure can be used to determine the IC50 for inhibition and/or the inhibition constant, Ki.
Chain of PI3K (p120γ) (h) (P48736 whole entry): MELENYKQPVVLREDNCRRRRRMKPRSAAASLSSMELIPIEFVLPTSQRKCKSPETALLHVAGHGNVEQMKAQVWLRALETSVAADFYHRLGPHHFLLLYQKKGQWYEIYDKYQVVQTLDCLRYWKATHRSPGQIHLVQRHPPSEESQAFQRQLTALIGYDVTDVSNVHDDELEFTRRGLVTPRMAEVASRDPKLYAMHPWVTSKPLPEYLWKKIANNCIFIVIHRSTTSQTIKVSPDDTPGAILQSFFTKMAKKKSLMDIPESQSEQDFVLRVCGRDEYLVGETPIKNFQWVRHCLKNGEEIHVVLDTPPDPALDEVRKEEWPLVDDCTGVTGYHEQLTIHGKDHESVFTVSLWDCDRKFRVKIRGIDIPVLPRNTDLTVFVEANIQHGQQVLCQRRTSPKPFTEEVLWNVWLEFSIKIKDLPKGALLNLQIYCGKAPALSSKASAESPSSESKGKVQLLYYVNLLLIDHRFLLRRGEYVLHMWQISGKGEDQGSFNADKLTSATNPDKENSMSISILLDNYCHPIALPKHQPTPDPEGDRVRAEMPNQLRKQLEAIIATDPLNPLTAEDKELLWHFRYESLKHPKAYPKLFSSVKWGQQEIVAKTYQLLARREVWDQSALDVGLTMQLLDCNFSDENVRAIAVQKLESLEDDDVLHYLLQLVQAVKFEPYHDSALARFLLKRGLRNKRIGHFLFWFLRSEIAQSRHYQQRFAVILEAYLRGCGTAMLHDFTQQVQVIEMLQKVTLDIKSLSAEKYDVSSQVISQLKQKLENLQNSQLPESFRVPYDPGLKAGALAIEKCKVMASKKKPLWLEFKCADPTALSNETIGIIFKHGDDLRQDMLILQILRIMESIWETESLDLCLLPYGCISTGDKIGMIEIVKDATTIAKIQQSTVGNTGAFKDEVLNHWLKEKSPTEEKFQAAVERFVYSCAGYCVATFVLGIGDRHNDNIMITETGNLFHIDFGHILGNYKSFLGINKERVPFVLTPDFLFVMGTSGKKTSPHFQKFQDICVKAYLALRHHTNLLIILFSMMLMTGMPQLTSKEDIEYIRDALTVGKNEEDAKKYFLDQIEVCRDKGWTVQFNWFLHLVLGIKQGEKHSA
PI3K (p120γ) (h) [Non-Radioactive Assay]
(§2) PI3K (p120γ) (h) is incubated in assay buffer containing 10 μM phosphatidylinositol-4, 5-bisphosphate and MgATP (concentration as required). The reaction is initiated by the addition of the MgATP mix. After incubation for 30 minutes at room temperature, the reaction is stopped by the addition of stop solution containing EDTA and biotinylated phosphatidylinositol-3,4,5-trisphosphate. Finally, detection buffer is added, which contains europium-labelled anti-GST monoclonal antibody, GST-tagged GRP1 PH domain and streptavidin-allophycocyanin. The plate is then read in timeresolved fluorescence mode and the homogenous time-resolved fluorescence (HTRF) signal is determined according to the formula HTRF=10000×(Em665 nm/Em620 nm).
(§3) The kinase assays described herein were performed at Millipore UK Ltd, Dundee Technology Park, Dundee DD2 1SW, UK.
(In general: In TR-FRET formats the signal depends on donor and acceptor labels being close together.)

In a further series the target is PI3K (p110α/p85α) (h) (Homo sapiens (Human), UniProt P42336). The series can be described thus: PI3K (p110α/p85α) (h) non-radioactive HTRF kinase assay. Type of series: biochemical. Particulars: performed at Millipore UK Ltd. How it is done:
as §1
PI3K (p110α/p85α) (h) [Non-Radioactive Assay]
as §2, with “(p110α/p85α)” for “(p120γ)”, “phosphatidylinositol 4,5-bisphosphate” for “phosphatidylinositol-4, 5-bisphosphate”, “ATP solution.” for “MgATP mix.”, “streptavidin allophycocyanin.” for “streptavidin-allophycocyanin.”
as §3

A short description of series [1]: Pharmacokinetic profiles in rats. It is filed as in vivo, rat. In outline: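 In rats, dogs and monkeys, IV dose was generally 1 or 2 mg/kg. Oral dose was generally 5 or 10 mg/kg in rats and 10 mg/kg in dogs and monkeys, given as solution, suspension or capsule. Plasma sampled over up to 24 h and analysed by LC/MS/MS.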
Series [2] in a line: Compound stability in human liver microsomes. Type of series: in vitro ADME. As to conditions: pH 7.4; for CLint scaled at 5 μM: liver microsomes, in vivo CLint extrapolated from human liver microsome incubation; for half-life at 5 μM: human liver microsomes 0.5 mg protein/mL, compound 5 μM, NADPH 1.0 mM, 37° C., read-out: Human T1/2. The method, boiled down: (§4)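 Human or rat liver microsomes (0.5 mg protein/mL) incubated with compound (5 μM) and NADPH (1.0 mM) in 100 mM potassium phosphate, pH 7.4, 0.05% DMSO, 37° C, sampled 0–60 min and quenched with cold acetonitrile. Remaining compound quantified by LC/MS/MS as % of time zero; CLint extrapolated.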

Series [3] in a line: Compound stability in rat liver microsomes. Type of series: in vitro ADME. As to conditions: pH 7.4; for CLint scaled at 5 μM: liver microsomes, in vivo CLint extrapolated from rat liver microsome incubation; for half-life at 5 μM: rat liver microsomes 0.5 mg protein/mL, compound 5 μM, NADPH 1.0 mM, 37° C., read-out: Rat T1/2. In outline:
as §4

The target in a further series is PI3K (p110β/p85α) (h) (Homo sapiens (Human), UniProt P42338). The series can be described thus: PI3K (p110β/p85α) (h) non-radioactive HTRF kinase assay. Type of series: biochemical. As to conditions: performed at Millipore UK Ltd. How it is done: as §1
Chain of PI3K (p110β/p85α) (h) (P42338 whole entry): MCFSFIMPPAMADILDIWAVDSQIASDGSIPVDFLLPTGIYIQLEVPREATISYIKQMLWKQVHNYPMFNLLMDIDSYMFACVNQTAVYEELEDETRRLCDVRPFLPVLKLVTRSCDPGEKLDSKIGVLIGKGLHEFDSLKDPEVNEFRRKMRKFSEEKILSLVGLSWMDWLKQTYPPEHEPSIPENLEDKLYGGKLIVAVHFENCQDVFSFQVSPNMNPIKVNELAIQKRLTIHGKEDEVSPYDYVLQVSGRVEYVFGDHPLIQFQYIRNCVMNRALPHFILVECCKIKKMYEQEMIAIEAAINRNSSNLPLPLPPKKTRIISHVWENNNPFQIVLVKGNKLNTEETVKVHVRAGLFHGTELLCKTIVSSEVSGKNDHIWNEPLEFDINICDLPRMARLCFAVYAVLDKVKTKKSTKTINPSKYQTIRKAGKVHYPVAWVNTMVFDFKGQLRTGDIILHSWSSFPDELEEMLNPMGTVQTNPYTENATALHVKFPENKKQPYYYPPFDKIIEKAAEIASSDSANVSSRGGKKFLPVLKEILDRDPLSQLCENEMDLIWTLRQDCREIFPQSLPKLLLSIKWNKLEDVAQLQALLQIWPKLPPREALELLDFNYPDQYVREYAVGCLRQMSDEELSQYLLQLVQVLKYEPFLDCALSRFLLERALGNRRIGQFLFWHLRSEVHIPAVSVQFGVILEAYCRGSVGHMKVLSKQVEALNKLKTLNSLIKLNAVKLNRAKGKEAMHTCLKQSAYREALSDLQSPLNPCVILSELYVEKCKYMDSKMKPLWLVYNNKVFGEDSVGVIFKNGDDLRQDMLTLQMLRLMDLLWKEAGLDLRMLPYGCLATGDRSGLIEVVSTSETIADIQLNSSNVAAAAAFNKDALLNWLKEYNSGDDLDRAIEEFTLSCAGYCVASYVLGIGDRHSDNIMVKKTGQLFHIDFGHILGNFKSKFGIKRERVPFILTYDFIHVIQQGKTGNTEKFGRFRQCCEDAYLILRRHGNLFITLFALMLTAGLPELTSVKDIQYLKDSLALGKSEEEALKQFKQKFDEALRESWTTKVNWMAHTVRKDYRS
Chain of PI3K (p110β/p85α) (h) (P27986 whole entry partner): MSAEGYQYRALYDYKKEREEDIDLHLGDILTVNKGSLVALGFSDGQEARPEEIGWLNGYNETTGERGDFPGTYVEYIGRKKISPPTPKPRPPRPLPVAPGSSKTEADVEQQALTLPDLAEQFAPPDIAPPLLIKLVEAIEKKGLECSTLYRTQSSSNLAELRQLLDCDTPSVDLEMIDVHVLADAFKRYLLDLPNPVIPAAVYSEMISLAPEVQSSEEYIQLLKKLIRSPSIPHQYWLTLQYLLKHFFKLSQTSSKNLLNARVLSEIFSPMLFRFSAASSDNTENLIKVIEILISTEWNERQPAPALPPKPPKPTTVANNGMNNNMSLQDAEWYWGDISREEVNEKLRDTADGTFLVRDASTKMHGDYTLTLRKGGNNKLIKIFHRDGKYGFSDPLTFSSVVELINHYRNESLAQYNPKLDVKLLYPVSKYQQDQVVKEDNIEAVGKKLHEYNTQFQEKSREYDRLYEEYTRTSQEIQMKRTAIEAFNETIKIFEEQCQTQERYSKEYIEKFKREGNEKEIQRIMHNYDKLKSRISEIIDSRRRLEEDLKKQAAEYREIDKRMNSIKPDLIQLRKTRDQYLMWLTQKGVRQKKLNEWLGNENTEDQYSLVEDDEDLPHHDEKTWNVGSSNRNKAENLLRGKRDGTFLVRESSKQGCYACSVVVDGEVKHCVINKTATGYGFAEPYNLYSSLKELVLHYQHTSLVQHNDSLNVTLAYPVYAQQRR
PI3K (p110β/p85α) (h) [Non-Radioactive Assay]
as §2, with “([…])” for “(p120γ)”
as §3

The next series deals with PI3K (p110δ/p85α) (h) (Homo sapiens (Human), UniProt O00329). Briefly: PI3K (p110δ/p85α) (h) non-radioactive HTRF kinase assay. Type of series: biochemical. Particulars: performed at Millipore UK Ltd. How it is done:
as §1
PI3K (p110δ/p85α) (h) [Non-Radioactive Assay]
as §2, with “(p110δ/p85α)” for “(p120γ)”
as §3

The subject of series [4] is systemic lupus erythematosis model. As to conditions: Nature Medicine, 2005, 11, 933-935; cited from earlier work.
The test system of series [5] is rheumatoid arthritis model. As to conditions: Nature Medicine, 2005, 11, 936-943; cited from earlier work.
Series [6] deals with ovalbumin-induced airway inflammation. Particulars: murine asthma model, FASEB, 2006, 20: 455-465; cited from earlier work.
In another series the test system is PI3Kδ. Particulars: Cell, 2006, 125, 733-747; cited from earlier work.
The next series has as its system protein kinases. As to conditions: Cell, 2006, 125, 733-747; cited from earlier work.

Chain of PI3K (p110α/p85α) (h) (P42336 whole entry): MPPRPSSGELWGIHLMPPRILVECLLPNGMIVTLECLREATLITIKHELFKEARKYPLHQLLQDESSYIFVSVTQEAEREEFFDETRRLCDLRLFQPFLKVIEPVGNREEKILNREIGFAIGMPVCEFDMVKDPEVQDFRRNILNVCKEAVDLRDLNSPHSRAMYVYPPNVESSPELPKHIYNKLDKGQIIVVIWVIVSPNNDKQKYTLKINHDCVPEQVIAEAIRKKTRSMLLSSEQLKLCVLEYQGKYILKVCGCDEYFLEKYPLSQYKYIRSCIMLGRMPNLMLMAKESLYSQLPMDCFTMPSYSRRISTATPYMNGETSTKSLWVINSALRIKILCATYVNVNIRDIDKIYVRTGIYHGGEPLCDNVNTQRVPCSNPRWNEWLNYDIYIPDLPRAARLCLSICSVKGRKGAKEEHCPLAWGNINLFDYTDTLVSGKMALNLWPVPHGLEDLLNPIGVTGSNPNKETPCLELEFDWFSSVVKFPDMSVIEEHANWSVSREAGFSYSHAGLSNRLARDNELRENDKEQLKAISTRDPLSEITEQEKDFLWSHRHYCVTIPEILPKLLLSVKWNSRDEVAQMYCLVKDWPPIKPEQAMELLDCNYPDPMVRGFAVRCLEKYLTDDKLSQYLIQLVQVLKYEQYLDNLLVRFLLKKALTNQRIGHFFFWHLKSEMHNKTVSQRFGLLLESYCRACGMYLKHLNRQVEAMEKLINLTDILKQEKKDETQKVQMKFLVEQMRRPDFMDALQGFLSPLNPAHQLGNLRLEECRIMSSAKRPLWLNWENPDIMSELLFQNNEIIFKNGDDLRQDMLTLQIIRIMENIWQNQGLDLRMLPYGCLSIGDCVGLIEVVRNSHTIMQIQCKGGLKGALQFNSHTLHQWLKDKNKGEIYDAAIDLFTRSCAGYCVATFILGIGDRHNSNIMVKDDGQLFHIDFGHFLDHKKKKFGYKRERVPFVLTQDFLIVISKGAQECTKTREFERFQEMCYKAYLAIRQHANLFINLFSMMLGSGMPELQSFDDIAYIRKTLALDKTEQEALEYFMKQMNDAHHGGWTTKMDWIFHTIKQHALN
Chain of PI3K (p110α/p85α) (h) (P27986 whole entry partner): as the sequence (P27986 whole entry partner) above
Chain of PI3K (p110δ/p85α) (h) (O00329 whole entry): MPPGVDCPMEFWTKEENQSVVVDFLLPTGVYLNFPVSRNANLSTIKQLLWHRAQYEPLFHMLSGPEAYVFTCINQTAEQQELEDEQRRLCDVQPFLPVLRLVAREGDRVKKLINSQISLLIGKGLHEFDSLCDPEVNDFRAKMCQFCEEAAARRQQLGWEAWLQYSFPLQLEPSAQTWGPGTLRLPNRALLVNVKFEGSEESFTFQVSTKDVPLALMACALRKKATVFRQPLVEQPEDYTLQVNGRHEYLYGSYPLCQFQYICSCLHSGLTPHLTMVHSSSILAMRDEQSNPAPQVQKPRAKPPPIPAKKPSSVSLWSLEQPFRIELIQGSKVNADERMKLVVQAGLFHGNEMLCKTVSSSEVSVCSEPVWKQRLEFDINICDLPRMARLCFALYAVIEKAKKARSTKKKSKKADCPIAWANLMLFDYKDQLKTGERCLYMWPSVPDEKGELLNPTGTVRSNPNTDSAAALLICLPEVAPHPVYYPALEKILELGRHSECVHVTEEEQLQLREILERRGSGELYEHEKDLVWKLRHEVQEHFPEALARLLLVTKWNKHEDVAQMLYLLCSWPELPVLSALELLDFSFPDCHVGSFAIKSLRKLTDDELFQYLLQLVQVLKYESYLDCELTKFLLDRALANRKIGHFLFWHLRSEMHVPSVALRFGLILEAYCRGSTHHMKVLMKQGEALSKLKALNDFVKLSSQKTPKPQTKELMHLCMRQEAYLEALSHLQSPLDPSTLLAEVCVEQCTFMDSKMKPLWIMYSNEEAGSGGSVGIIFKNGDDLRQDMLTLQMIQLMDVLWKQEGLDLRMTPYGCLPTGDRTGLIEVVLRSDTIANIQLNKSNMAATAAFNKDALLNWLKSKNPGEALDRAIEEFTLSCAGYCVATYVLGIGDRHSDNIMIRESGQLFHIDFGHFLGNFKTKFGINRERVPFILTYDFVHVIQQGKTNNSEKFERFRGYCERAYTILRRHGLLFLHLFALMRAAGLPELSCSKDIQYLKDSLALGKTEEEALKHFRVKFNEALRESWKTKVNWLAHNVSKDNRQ
Chain of PI3K (p110δ/p85α) (h) (P27986 whole entry partner): as the sequence (P27986 whole entry partner) above

Regarding `CC[C@H](Nc1ncnc(N)c1-c1nnc(C)o1)c1cc2cccc(Cl)c2c(=O)n1-c1ccccc1` [Ex. 5, (S)-3-(1-((6-amino-5-(5-methyl-1,3,4-oxadiazol-2-yl)pyrimidin-4-yl)amino)propyl)-8-chloro-2-phenylisoquinolin-1(2H)-one], the figures for the IC50 at PI3K (p120γ) (h), on PI3K (p110α/p85α) (h) and at PI3K (p110β/p85α) (h) were 388 nM, over 3000 nM and 259 nM, respectively. Also, the Cl/F in series [1] (iv dosing 1 mg/kg) turned out to be 52.2 mL/min/kg. In addition, the F in series [1] (oral vs iv (iv 1 mg/kg; p.o. generally 5 or 10 mg/kg)) is on record as 106.3%. The compound also gave an exposure AUC(0-t) in series [1] (rat, plasma, iv dosing 1 mg/kg) of 320 ng·h/mL. This compound showed a half-life in series [1] (rat, plasma, iv dosing 1 mg/kg) of 31.8 min. Further, the Vd in series [1] (rat, plasma, iv dosing 1 mg/kg, read-out: Vss) stood at 1.87 L/kg. For the same compound, the values for the CLint scaled at 5 μM in series [2] and in series [3] were 29.2 mL/min/kg and 108 mL/min/kg, respectively. The half-life at 5 μM in [2] was found to be 59.6 min; in [3], 23.1 min.
For the compound `Cc1noc(-c2c(N)ncnc2N[C@@H](C)c2cc3cccc(-c4cnn(C)c4)c3c(=O)n2-c2ccccc2)n1` [Ex. 28, (S)-3-(1-((6-amino-5-(3-methyl-1,2,4-oxadiazol-5-yl)pyrimidin-4-yl)amino)ethyl)-8-(1-methyl-1H-pyrazol-4-yl)-2-phenylisoquinolin-1(2H)-one], the IC50 on PI3K (p120γ) (h) turned out to be 104 nM; on PI3K (p110α/p85α) (h) it was 225 nM; at PI3K (p110β/p85α) (h) it was 1170 nM; on PI3K (p110δ/p85α) (h) it was 9 nM. The CLint scaled at 5 μM is 64.1 mL/min/kg in series [2] and 72.7 mL/min/kg in series [3]. Moreover, the half-life at 5 μM was 27.1 min in series [2] and 34.2 min in series [3].
In the case of `Cc1nnc(-c2c(N)ncnc2N[C@@H](C)c2cc3cccc(-c4cnn(C)c4)c3c(=O)n2-c2ccccc2)o1` [Ex. 27, (S)-3-(1-((6-amino-5-(5-methyl-1,3,4-oxadiazol-2-yl)pyrimidin-4-yl)amino)ethyl)-8-(1-methyl-1H-pyrazol-4-yl)-2-phenylisoquinolin-1(2H)-one], the IC50 at PI3K (p120γ) (h) is 237 nM; at PI3K (p110α/p85α) (h), over 3000 nM; at PI3K (p110β/p85α) (h), over 3000 nM; at PI3K (p110δ/p85α) (h), 17 nM. Moreover, the CLint scaled at 5 μM in series [2] is 15.5 mL/min/kg; in series [3], 33.3 mL/min/kg. Moreover, the half-life at 5 μM in series [2] stood at 112 min; in [3], 74.5 min.
Consider `O=C1NC(=O)/C(=C\c2ccc3nccnc3c2)S1` [AS 605240], for which, in series [4], the “effect on onset of disease in model of systemic lupus erythematosis” value is listed as “delay onset of disease”. Besides, the “efficacy in mouse model of rheumatoid arthritis” value in series [5] was “efficacious”.
As to `Cc1ccccc1-n1c(Cn2cnc3c(N)ncnc32)nc2cccc(C)c2c1=O` [IC87114], in series [6], the “effect on inflammation and disease” value was “significantly ameliorate inflammation and disease”. Also, the “inhibits PI3Kδ” value in the series with PI3Kδ was “high nanomolar range (triple digit)”. The “activity against any protein kinases tested” value with protein kinases is “no activity”.
